Tests used:
[1] = target: T1, Alpha-2C adrenergic receptor (Homo sapiens, UniProt P18825); assay: DRUGMATRIX: Adrenergic Alpha-2C radioligand binding (ligand: [3H] MK-912); assay type: cell membranes, Sf9, Membrane; details: sf9
T1 sequence (P18825 whole entry): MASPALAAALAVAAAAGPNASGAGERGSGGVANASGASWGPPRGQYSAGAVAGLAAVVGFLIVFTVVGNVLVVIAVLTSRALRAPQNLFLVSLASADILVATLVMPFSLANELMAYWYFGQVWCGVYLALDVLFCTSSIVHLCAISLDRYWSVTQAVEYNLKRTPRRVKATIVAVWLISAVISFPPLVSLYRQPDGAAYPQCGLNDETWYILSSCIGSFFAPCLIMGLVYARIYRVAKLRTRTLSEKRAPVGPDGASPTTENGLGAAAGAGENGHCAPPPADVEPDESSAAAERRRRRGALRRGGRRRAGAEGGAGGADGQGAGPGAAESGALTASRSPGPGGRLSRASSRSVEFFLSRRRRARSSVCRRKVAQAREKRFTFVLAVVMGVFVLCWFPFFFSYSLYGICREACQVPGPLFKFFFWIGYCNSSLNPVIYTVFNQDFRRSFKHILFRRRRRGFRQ

[2] = target: T2, Type-2 angiotensin II receptor (Homo sapiens, UniProt P50052); assay type: cell-based; details: cho-k1; also: in other assays of this panel Not Active means under 50% inhibition at 10 µM
T2 sequence (P50052 whole entry): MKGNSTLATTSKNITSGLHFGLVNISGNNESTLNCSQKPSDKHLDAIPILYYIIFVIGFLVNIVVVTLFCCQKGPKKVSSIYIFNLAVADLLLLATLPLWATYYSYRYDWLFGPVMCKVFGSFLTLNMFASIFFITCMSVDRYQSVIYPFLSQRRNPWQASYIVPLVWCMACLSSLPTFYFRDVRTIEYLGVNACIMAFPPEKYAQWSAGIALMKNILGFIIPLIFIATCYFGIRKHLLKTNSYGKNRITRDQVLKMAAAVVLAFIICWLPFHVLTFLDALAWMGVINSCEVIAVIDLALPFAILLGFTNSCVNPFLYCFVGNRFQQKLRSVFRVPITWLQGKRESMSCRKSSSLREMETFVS

[3] = DRUGMATRIX: Atrial Natriuretic Factor (ANF) radioligand binding (ligand: [125I] ANF (rat)); assay type: cell membranes, Cavia porcellus, Dunkin-Hartley, Adrenal gland, Membrane; details: Not Active = under 50% inhibition at 10 µM
[4] = DRUGMATRIX: GABAA, Chloride Channel, TBOB radioligand binding (ligand: [3H] TBOB); assay type: cell membranes, Rattus norvegicus, Wistar, Cerebral cortex, Membrane; details: Not Active = under 50% inhibition at 10 µM
[5] = target: T3, 3-hydroxy-3-methylglutaryl-coenzyme A reductase (Homo sapiens, UniProt P04035); design: species or system Escherichia coli;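 also: enzyme inhibition assay of HMG-CoA reductase using radiolabeled [14C]HMG-CoA as substrate; in other assays of this panel Not Active means under 50% inhibition at 10 µM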
T3 sequence (P04035 whole entry): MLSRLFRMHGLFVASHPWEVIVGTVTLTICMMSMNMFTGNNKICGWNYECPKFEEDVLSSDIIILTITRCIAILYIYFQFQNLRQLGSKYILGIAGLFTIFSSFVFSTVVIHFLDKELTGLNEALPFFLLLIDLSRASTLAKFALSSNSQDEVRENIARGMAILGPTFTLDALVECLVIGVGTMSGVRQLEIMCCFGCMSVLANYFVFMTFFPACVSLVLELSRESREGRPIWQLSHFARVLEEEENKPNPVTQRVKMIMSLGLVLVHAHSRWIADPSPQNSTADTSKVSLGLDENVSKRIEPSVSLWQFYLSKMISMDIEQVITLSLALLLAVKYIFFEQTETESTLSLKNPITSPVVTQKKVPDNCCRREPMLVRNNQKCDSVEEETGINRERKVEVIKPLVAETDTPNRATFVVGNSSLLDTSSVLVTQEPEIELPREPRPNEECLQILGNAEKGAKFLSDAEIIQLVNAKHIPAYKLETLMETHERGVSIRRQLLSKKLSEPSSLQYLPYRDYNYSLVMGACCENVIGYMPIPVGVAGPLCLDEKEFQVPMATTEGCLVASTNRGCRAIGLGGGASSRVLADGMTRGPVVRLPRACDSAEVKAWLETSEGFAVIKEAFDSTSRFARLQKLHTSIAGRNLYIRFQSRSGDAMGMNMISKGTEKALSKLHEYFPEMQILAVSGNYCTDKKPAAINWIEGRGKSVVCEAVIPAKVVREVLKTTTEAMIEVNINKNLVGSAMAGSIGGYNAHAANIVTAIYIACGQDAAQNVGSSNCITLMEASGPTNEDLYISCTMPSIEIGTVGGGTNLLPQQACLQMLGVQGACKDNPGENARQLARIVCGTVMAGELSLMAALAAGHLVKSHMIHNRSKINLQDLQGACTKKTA

[6] = DRUGMATRIX: Phosphodiesterase PDE3 enzyme inhibition (substrate: [3H]cAMP + cAMP); assay type: tissue-based, Homo sapiens; details: platelet; Not Active = under 50% inhibition at 10 µM
Neutrophil elastase = target: T4, Neutrophil elastase (Homo sapiens, UniProt P08246); assay type: tissue-based;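 also: inhibition of neutrophil elastase enzyme activity, measured with a p-nitroanilide-linked peptide substrate; in other assays of this panel Not Active means under 50% inhibition at 10 µM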
T4 sequence (P08246 whole entry): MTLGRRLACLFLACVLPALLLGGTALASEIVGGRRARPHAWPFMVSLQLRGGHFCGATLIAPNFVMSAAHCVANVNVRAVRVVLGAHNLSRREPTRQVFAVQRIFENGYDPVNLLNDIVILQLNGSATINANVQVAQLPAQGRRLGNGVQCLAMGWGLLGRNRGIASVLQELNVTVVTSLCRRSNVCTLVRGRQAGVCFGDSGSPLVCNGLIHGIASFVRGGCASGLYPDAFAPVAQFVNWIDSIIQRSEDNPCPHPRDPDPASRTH

Cytochrome P450 1A2 = target: T5, Cytochrome P450 1A2 (Homo sapiens, UniProt P05177); details: bti-tn-5b1-4; also: in other assays of this panel Not Active means under 50% inhibition at 10 µM
T5 sequence (P05177 whole entry): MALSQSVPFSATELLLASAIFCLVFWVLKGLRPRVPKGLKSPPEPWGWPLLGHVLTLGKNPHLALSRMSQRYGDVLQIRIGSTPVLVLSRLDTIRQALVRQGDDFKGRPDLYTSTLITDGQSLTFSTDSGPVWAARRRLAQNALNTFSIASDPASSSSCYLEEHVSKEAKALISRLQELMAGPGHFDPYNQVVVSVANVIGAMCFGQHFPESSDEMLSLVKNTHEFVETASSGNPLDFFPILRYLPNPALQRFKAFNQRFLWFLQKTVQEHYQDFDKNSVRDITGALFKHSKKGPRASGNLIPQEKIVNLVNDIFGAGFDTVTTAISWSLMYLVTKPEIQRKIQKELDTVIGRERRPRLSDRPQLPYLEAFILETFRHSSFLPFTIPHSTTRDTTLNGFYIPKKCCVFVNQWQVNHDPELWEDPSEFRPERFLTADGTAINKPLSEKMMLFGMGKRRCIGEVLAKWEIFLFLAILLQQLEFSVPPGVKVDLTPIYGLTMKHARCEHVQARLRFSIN

Cytochrome P450 2C19 = Cytochrome P450 2C19 (Homo sapiens, UniProt P33261); details: bti-tn-5b1-4; also: in other assays of this panel Not Active means under 50% inhibition at 10 µM
Chain of Cytochrome P450 2C19 (P33261 whole entry): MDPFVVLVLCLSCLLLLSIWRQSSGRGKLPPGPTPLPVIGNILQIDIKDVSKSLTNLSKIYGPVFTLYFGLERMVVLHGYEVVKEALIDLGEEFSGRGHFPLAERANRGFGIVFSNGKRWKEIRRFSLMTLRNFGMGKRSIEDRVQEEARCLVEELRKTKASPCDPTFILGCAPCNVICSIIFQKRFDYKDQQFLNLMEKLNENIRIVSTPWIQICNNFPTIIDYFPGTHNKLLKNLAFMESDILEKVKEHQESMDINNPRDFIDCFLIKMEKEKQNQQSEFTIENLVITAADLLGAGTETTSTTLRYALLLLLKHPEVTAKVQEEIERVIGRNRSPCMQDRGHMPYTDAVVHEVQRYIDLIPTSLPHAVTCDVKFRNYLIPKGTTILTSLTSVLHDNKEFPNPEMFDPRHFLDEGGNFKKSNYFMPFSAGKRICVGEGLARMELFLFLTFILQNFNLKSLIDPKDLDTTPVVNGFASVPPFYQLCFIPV

CC(C)(C)NC(=O)[C@@H]1C[C@@H]2CCCC[C@@H]2CN1C[C@@H](O)[C@H](Cc1ccccc1)NC(=O)[C@H](CC(N)=O)NC(=O)c1ccc2ccccc2n1
Not Active: IC50 [1] | IC50 [2] | IC50 [3] | Ki [3] | IC50 [4] | Ki [4] | IC50 [5] | IC50 [6] | Ki [6] | IC50 (Neutrophil elastase) | IC50 (Cytochrome P450 1A2) | Ki (Cytochrome P450 1A2) | IC50 (Cytochrome P450 2C19) | Ki (Cytochrome P450 2C19)

c1ccc([C@H]2CN3CCSC3=N2)cc1 [LEVAMISOLE]
Not Active: IC50 [1] | IC50 [2] | IC50 [3] | Ki [3] | IC50 [4] | Ki [4] | IC50 [5] | IC50 [6] | Ki [6] | IC50 (Neutrophil elastase) | IC50 (Cytochrome P450 1A2) | Ki (Cytochrome P450 1A2) | IC50 (Cytochrome P450 2C19) | Ki (Cytochrome P450 2C19)

N[C@@H](Cc1ccc(O)c(O)c1)C(=O)O [LEVODOPA]
Not Active: IC50 [1] | IC50 [2] | IC50 [3] | Ki [3] | IC50 [4] | Ki [4] | IC50 [5] | IC50 [6] | Ki [6] | IC50 (Neutrophil elastase) | IC50 (Cytochrome P450 1A2) | Ki (Cytochrome P450 1A2) | IC50 (Cytochrome P450 2C19) | Ki (Cytochrome P450 2C19)

O=NN(CCCl)C(=O)NC1CCCCC1 [LOMUSTINE]
Not Active: IC50 [1] | IC50 [2] | IC50 [3] | Ki [3] | IC50 [4] | Ki [4] | IC50 [5] | IC50 [6] | Ki [6] | IC50 (Neutrophil elastase) | IC50 (Cytochrome P450 1A2) | Ki (Cytochrome P450 1A2) | IC50 (Cytochrome P450 2C19) | Ki (Cytochrome P450 2C19)

COc1nc(C)nc(Cl)c1NC1=NCCN1 [MOXONIDINE]
Not Active: IC50 [1] | IC50 [2] | IC50 [3] | Ki [3] | IC50 [4] | Ki [4] | IC50 [5] | IC50 [6] | Ki [6] | IC50 (Neutrophil elastase) | IC50 (Cytochrome P450 1A2) | Ki (Cytochrome P450 1A2) | IC50 (Cytochrome P450 2C19) | Ki (Cytochrome P450 2C19)

COc1c(C)c2c(c(O)c1C/C=C(\C)CCC(=O)O)C(=O)OC2 [MYCOPHENOLIC ACID]
Not Active: IC50 [1] | IC50 [2] | IC50 [3] | Ki [3] | IC50 [4] | Ki [4] | IC50 [5] | IC50 [6] | Ki [6] | IC50 (Neutrophil elastase) | IC50 (Cytochrome P450 1A2) | Ki (Cytochrome P450 1A2) | IC50 (Cytochrome P450 2C19) | Ki (Cytochrome P450 2C19)

O=c1ncn2nc(Sc3ccc(F)cc3F)ccc2c1-c1c(Cl)cccc1Cl [NEFLAMAPIMOD]
Not Active: IC50 [1] | IC50 [2] | IC50 [3] | Ki [3] | IC50 [4] | Ki [4] | IC50 [5] | IC50 [6] | Ki [6] | IC50 (Neutrophil elastase) | IC50 (Cytochrome P450 1A2) | Ki (Cytochrome P450 1A2) | IC50 (Cytochrome P450 2C19) | Ki (Cytochrome P450 2C19)

CO[C@H]1/C=C/O[C@@]2(C)Oc3c(C)c(O)c4c(O)c(c(/C=N/N5CCN(C)CC5)c(O)c4c3C2=O)NC(=O)/C(C)=C\C=C\[C@H](C)[C@H](O)[C@@H](C)[C@@H](O)[C@@H](C)[C@H](OC(C)=O)[C@@H]1C [RIFAMPIN]
Not Active: IC50 [1] | IC50 [2] | IC50 [3] | Ki [3] | IC50 [4] | Ki [4] | IC50 [5] | IC50 [6] | Ki [6] | IC50 (Neutrophil elastase) | IC50 (Cytochrome P450 1A2) | Ki (Cytochrome P450 1A2) | IC50 (Cytochrome P450 2C19) | Ki (Cytochrome P450 2C19)

C=CCC1(C(C)CCC)C(=O)NC(=O)NC1=O (configuration not stated) [SECOBARBITAL]
Not Active: IC50 [1] | IC50 [2] | IC50 [3] | Ki [3] | IC50 [4] | Ki [4] | IC50 [5] | IC50 [6] | Ki [6] | IC50 (Neutrophil elastase) | IC50 (Cytochrome P450 1A2) | Ki (Cytochrome P450 1A2) | IC50 (Cytochrome P450 2C19) | Ki (Cytochrome P450 2C19)

C[C@@H]1CN(c2c(F)c(N)c3c(=O)c(C(=O)O)cn(C4CC4)c3c2F)C[C@H](C)N1 [SPARFLOXACIN]
Not Active: IC50 [1] | IC50 [2] | IC50 [3] | Ki [3] | IC50 [4] | Ki [4] | IC50 [5] | IC50 [6] | Ki [6] | IC50 (Neutrophil elastase) | IC50 (Cytochrome P450 1A2) | Ki (Cytochrome P450 1A2) | IC50 (Cytochrome P450 2C19) | Ki (Cytochrome P450 2C19)

Cc1noc(NS(=O)(=O)c2ccc(N)cc2)c1C [SULFISOXAZOLE]
Not Active: IC50 [1] | IC50 [2] | IC50 [3] | Ki [3] | IC50 [4] | Ki [4] | IC50 [5] | IC50 [6] | Ki [6] | IC50 (Neutrophil elastase) | IC50 (Cytochrome P450 1A2) | Ki (Cytochrome P450 1A2) | IC50 (Cytochrome P450 2C19) | Ki (Cytochrome P450 2C19)

Nc1c2c(nc3ccccc13)CCCC2 [TACRINE]
Not Active: IC50 [1] | IC50 [2] | IC50 [3] | Ki [3] | IC50 [4] | Ki [4] | IC50 [5] | IC50 [6] | Ki [6] | IC50 (Neutrophil elastase) | IC50 (Cytochrome P450 1A2) | Ki (Cytochrome P450 1A2) | IC50 (Cytochrome P450 2C19) | Ki (Cytochrome P450 2C19)

Nc1nc2nc[nH]c2c(=S)[nH]1 [THIOGUANINE]
Not Active: IC50 [1] | IC50 [2] | IC50 [3] | Ki [3] | IC50 [4] | Ki [4] | IC50 [5] | IC50 [6] | Ki [6] | IC50 (Neutrophil elastase) | IC50 (Cytochrome P450 1A2) | Ki (Cytochrome P450 1A2) | IC50 (Cytochrome P450 2C19) | Ki (Cytochrome P450 2C19)
